According to ChEMBL document CHEMBL5352418, “Molecular networking assisted discovery and combinatorial biosynthesis of new antimicrobial pleuromutilins” (Eur J Med Chem, 2022):
Converted amounts (≈) assume the structure as drawn. The source made the active and inactive calls. The rule behind the calls is not given here.

Columns and labels:
Enterococcus faecalis = experiment: Antibacterial activity against vancomycin-resistant Enterococcus faecalis clinical isolate assessed as bacterial growth inhibition by CLSI protocol based broth microdilution method; assay type: functional
Escherichia coli [1] = experiment: Antibacterial activity against Escherichia coli OP50 assessed as bacterial growth inhibition at 20 uM by CLSI protocol based broth microdilution method; assay type: functional; conditions: read-out: GI
RAW264.7 [2] = experiment: Immunostimulatory activity in mouse RAW264.7 cells assessed as increase in cell viability at 1 uM incubated for 48 hrs by CCK-8 assay; assay type: functional
RAW264.7 [3] = experiment: Immunostimulatory activity in mouse RAW264.7 cells assessed as increase in NO production at 1 uM incubated for 24 hrs by Griess method; assay type: functional, cell-based
Staphylococcus aureus = experiment: Antibacterial activity against methicillin-resistant Staphylococcus aureus clinical isolate assessed as bacterial growth inhibition by CLSI protocol based broth microdilution method; assay type: functional
RAW264.7 [4] = experiment: Immunostimulatory activity in mouse RAW264.7 cells assessed as increase in TNF-alpha production level at 1 uM incubated for 24 hrs by ELISA; assay type: functional, cell-based
RAW264.7 [5] = experiment: Cytotoxicity activity mouse RAW264.7 cells assessed as reduction in cell viability at upto 100 uM incubated for 48 hrs by CCK-8 assay; assay type: toxicity, cell-based; conditions: raw264.7, 48 h
Pseudomonas aeruginosa = experiment: Antibacterial activity against Pseudomonas aeruginosa PA01 assessed as bacterial growth inhibition at 20 uM by CLSI protocol based broth microdilution method; assay type: functional; conditions: read-out: GI
RAW264.7 [6] = experiment: Immunostimulatory activity in mouse RAW264.7 cells assessed as increase in ROS production by measuring fluorescence intensity at 1 uM incubated for 24 hrs by DCFH-DA staining based fluorescence microplate reader assay; assay type: functional, cell-based
RAW264.7 [7] = experiment: Immunostimulatory activity in mouse RAW264.7 cells assessed as increase in cell viability at 0.078 to 10 uM incubated for 48 hrs by CCK-8 assay; assay type: functional, cell-based; conditions: dose 0.078-10 µM
RAW264.7 [8] = experiment: Immunostimulatory activity in mouse RAW264.7 cells assessed as increase in IL-6 production level at 1 uM incubated for 24 hrs by ELISA; assay type: functional, cell-based
Escherichia coli [9] = experiment: Antibacterial activity against enteropathogenic Escherichia coli […] assessed as bacterial growth inhibition at 20 uM by CLSI protocol based broth microdilution method; assay type: functional; conditions: read-out: GI

C=C[C@]1(C)C[C@@H](OC(=O)CO[C@H]2O[C@H](CO)[C@@H](O)[C@H](O)[C@H]2O)[C@@]2(C)C3C(=O)CCC3(CC[C@H]2C)[C@@H](C)[C@@H]1O (single isomer, unassigned)
MIC (Enterococcus faecalis): > 20 µM
inhibition of growth at 20 µM (Escherichia coli [1]): 21%
Activity (RAW264.7 [2]): inactive
Activity (RAW264.7 [3]): Active
MIC (Staphylococcus aureus): > 20 µM
Activity (RAW264.7 [4]): Active
Activity (RAW264.7 [5]): Non-Toxic

C=C[C@]1(C)C[C@@H](OC(C)=O)[C@@]2(C)C3[C@H](O)CC[C@@]3(CC[C@H]2C)[C@@H](C)[C@@H]1O (stereo partly drawn)
MIC (Enterococcus faecalis): 0.625 µM (≈ 0.228 µg/mL)
inhibition of growth at 20 µM (Escherichia coli [1]): 20%
inhibition of growth at 20 µM (Pseudomonas aeruginosa): 18%
Activity (RAW264.7 [2]): inactive
MIC (Staphylococcus aureus): 6.25 µM (≈ 2.28 µg/mL)
Activity (RAW264.7 [4]): Active
Activity (RAW264.7 [5]): Non-Toxic

C=C[C@]1(C)C[C@@H](OC(C)=O)[C@@]2(C)C3C(=O)CC[C@@]3(CC[C@H]2C)[C@@H](C)[C@@H]1O (stereo partly drawn)
MIC (Enterococcus faecalis): 2.5 µM (≈ 0.906 µg/mL)
Activity (RAW264.7 [6]): Active
Activity (RAW264.7 [7]): Dose-Dependent Effect
inhibition of growth at 20 µM (Escherichia coli [1]): 61%
inhibition of growth at 20 µM (Pseudomonas aeruginosa): 51%
Activity (RAW264.7 [2]): 60%
MIC (Staphylococcus aureus): 0.39 µM (≈ 0.141 µg/mL)
Activity (RAW264.7 [5]): Non-Toxic

C=C[C@]1(C)C[C@@H](O)[C@@]2(C)C3C(=O)CC[C@@]3(CC[C@H]2C)[C@@H](C)[C@@H]1O (stereo partly drawn)
MIC (Enterococcus faecalis): 5 µM (≈ 1.6 µg/mL)
Activity (RAW264.7 [6]): Active
Activity (RAW264.7 [2]): inactive
MIC (Staphylococcus aureus): 6.25 µM (≈ 2 µg/mL)
Activity (RAW264.7 [5]): Non-Toxic

C=C[C@]1(C)C[C@@H](O)[C@@]2(C)C3=CC(=O)C[C@@]3(CC[C@H]2C)[C@@H](C)[C@@H]1O
MIC (Enterococcus faecalis): > 20 µM
Activity (RAW264.7 [8]): Active
Activity (RAW264.7 [2]): inactive
MIC (Staphylococcus aureus): > 20 µM
Activity (RAW264.7 [4]): Active
Activity (RAW264.7 [5]): Non-Toxic

C[C@@H]1CC[C@@]23CCC(=O)C2[C@]1(C)[C@H](OC(=O)CO)C[C@@]1(C)[C@H](O)CO[C@H]1[C@@H]3C (stereo partly drawn)
MIC (Enterococcus faecalis): 20 µM (≈ 7.89 µg/mL)
inhibition of growth at 20 µM (Escherichia coli [1]): 34%
Activity (RAW264.7 [2]): inactive
Activity (RAW264.7 [3]): Active
MIC (Staphylococcus aureus): > 20 µM
Activity (RAW264.7 [4]): Active
Activity (RAW264.7 [5]): Non-Toxic

C=C[C@]1(C)C[C@@H](OC(=O)CO)[C@@]2(C)C3C(=O)[C@H](O)CC3(CC[C@H]2C)[C@@H](C)[C@@H]1O (single isomer, unassigned)
MIC (Enterococcus faecalis): 1.25 µM (≈ 0.493 µg/mL)
inhibition of growth at 20 µM (Escherichia coli [9]): 52%
Activity (RAW264.7 [8]): Active
inhibition of growth at 20 µM (Escherichia coli [1]): 70%
Activity (RAW264.7 [2]): inactive
Activity (RAW264.7 [3]): Active
MIC (Staphylococcus aureus): 3.12 µM (≈ 1.23 µg/mL)
Activity (RAW264.7 [4]): Active
Activity (RAW264.7 [5]): Non-Toxic

C=C[C@]1(C)C[C@@H](O)[C@@]2(C)C3CCC[C@@]3(CC[C@H]2C)[C@@H](C)C1 (stereo partly drawn)
MIC (Enterococcus faecalis): 20 µM (≈ 5.81 µg/mL)
Activity (RAW264.7 [2]): inactive
MIC (Staphylococcus aureus): 12.5 µM (≈ 3.63 µg/mL)
Activity (RAW264.7 [4]): Active
Activity (RAW264.7 [5]): Non-Toxic

C=C[C@]1(C)C[C@@H](OC(=O)CO)[C@@]2(C)C3=CC(=O)C[C@@]3(CC[C@H]2C)[C@@H](C)[C@@H]1O
MIC (Enterococcus faecalis): 5 µM (≈ 1.88 µg/mL)
Activity (RAW264.7 [2]): inactive
MIC (Staphylococcus aureus): > 20 µM
Activity (RAW264.7 [4]): Active
Activity (RAW264.7 [5]): Non-Toxic

C=C[C@@]1(C)C[C@H](C)[C@]23CC[C@@H](O)C2[C@@](C)([C@H](C)CC3)[C@H](OC(C)=O)C1 (stereo partly drawn)
MIC (Enterococcus faecalis): 2.5 µM (≈ 0.871 µg/mL)
Activity (RAW264.7 [2]): inactive
MIC (Staphylococcus aureus): > 20 µM
Activity (RAW264.7 [4]): Active
Activity (RAW264.7 [5]): Non-Toxic

C=C[C@]1(C)C[C@@H](O)[C@@]2(C)C3[C@H](O)CC[C@@]3(CC[C@H]2C)[C@@H](C)C1 (stereo partly drawn)
MIC (Enterococcus faecalis): 20 µM (≈ 6.13 µg/mL)
Activity (RAW264.7 [2]): inactive
MIC (Staphylococcus aureus): 12.5 µM (≈ 3.83 µg/mL)
Activity (RAW264.7 [5]): Non-Toxic

C[C@@H]1CC[C@@]23CCC(=O)C2[C@]1(C)[C@H](OC(=O)CO)C[C@@](C)([C@H](O)CO)[C@@H](O)[C@@H]3C (stereo partly drawn)
MIC (Enterococcus faecalis): 20 µM (≈ 8.25 µg/mL)
inhibition of growth at 20 µM (Escherichia coli [1]): 50%
Activity (RAW264.7 [2]): inactive
Activity (RAW264.7 [3]): Active
MIC (Staphylococcus aureus): > 20 µM
Activity (RAW264.7 [4]): Active
Activity (RAW264.7 [5]): Non-Toxic

C=C[C@@]1(C)C[C@H](C)[C@]23CCC(=O)C2[C@@](C)([C@H](C)CC3)[C@H](OC(C)=O)C1 (stereo partly drawn)
MIC (Enterococcus faecalis): 1.25 µM (≈ 0.433 µg/mL)
Activity (RAW264.7 [2]): inactive
MIC (Staphylococcus aureus): 12.5 µM (≈ 4.33 µg/mL)
Activity (RAW264.7 [5]): Non-Toxic

C=C[C@]1(C)C[C@@H](O)[C@@]2(C)C3[C@H](O)CC[C@@]3(CC[C@H]2C)[C@@H](C)[C@@H]1O (stereo partly drawn)
MIC (Enterococcus faecalis): 20 µM (≈ 6.45 µg/mL)
Activity (RAW264.7 [2]): inactive
MIC (Staphylococcus aureus): 12.5 µM (≈ 4.03 µg/mL)
Activity (RAW264.7 [5]): Non-Toxic

C=C[C@]1(C)C[C@@H](OC(C)=O)[C@@]2(C)C3=CC(=O)C[C@@]3([C@H](O)C[C@H]2C)[C@@H](C)[C@@H]1O
MIC (Enterococcus faecalis): 5 µM (≈ 1.88 µg/mL)
Activity (RAW264.7 [8]): Active
Activity (RAW264.7 [2]): inactive
MIC (Staphylococcus aureus): > 20 µM
Activity (RAW264.7 [4]): Active
Activity (RAW264.7 [5]): Non-Toxic

CC(=O)OC[C@@H](O)[C@]1(C)C[C@@H](OC(=O)CO)[C@@]2(C)C3C(=O)CC[C@@]3(CC[C@H]2C)[C@@H](C)[C@@H]1O (stereo partly drawn)
MIC (Enterococcus faecalis): > 20 µM
Activity (RAW264.7 [8]): Active
inhibition of growth at 20 µM (Escherichia coli [1]): 21%
Activity (RAW264.7 [2]): inactive
MIC (Staphylococcus aureus): > 20 µM
Activity (RAW264.7 [4]): Active
Activity (RAW264.7 [5]): Non-Toxic

C=C[C@]1(C)C[C@@H](OC(=O)CO)[C@@]2(C)C3C(=O)CC[C@@]3(CC[C@H]2C)[C@@H](C)[C@@H]1O (stereo partly drawn)
MIC (Enterococcus faecalis): 0.31 µM (≈ 0.117 µg/mL)
Activity (RAW264.7 [7]): Dose-Dependent Effect
inhibition of growth at 20 µM (Escherichia coli [1]): 71%
inhibition of growth at 20 µM (Pseudomonas aeruginosa): 40%
Activity (RAW264.7 [2]): 60%
MIC (Staphylococcus aureus): 0.09 µM (≈ 0.0341 µg/mL)
Activity (RAW264.7 [5]): Non-Toxic
